{"source": "patent US20230339878A1", "about": "“SLC26A3 INHIBITORS AND USE THEREOF” (THE REGENTS OF THE UNIVERSITY OF CALIFORNIA, priority 2018, published 2023)", "key": {"[1]": {"test_system": "loperamide-treated wild-type mice", "test": "Loperamide-induced constipation model in wild-type mice", "type": "in vivo", "experimental": "Female CD1 mice (age 8-10 weeks) were administered loperamide (0.3 mg/kg, intraperitoneally, Sigma-Aldrich) to produce constipation. Compound A1 (DRAinh-A250) (5 mg/kg, in saline containing vehicle (5% DMSO and 10% Kolliphor HS 15; Sigma-Aldrich)), tenapanor (5 mg/kg, in vehicle), both compounds (5 mg/kg each, in vehicle), or vehicle alone were administered by oral gavage 1 hour before loperamide. After loperamide injection, mice were placed individually in metabolic cages with ad libitum access to food and water. Stool samples were collected for 3 h, and total stool weight and number of fecal pellets were quantified. To measure stool water content, stool samples were dried at 80° C. for 24 h and water content was calculated as [wet weight-dry weight]/wet weight. Similar studies were done in cystic fibrosis (CF) mice (ΔF508 homozygous) lacking functional CFTR.\nConstipation Model in MiceDRAinh-A260 and DRAinh-A270 were tested in a loperamide-induced constipation model in mice. Female CD1 mice (age 8-10 weeks) were administered loperamide (0.3 mg/kg, intraperitoneally, in 5% ethanol in PBS, 0.1 mg/mL final concentration) to produce constipation and vehicle in control mice. DRAinh-A260 (5 mg/kg, in saline with 5% DMSO and 10% Kolliphor HS 15) or DRAinh-A270 (1, 3 or 10 mg/kg, in PBS with 5% DMSO and 20% (2- hydroxypropyl)-β-cyclodextrin) or vehicle alone were administered by oral gavage 1 hour before loperamide (FIG. 11A). After loperamide injection, mice were placed individually in metabolic cages with free access to food and water. Stool samples were collected for 3 hours, and total stool weight and number of fecal pellets were quantified. To measure stool water content, stool samples were dried at 80° C. for 24 hours and water content was calculated as [wet weight-dry weight]/wet weight."}, "murine slc26a3": {"target": "T1, murine slc26a3 (Mus musculus, UniProt Q9WVC8)", "T1 construct": "host or cells: Fischer rat thyroid (FRT) cells expressing YFP, clonal line FRT-YFP-slc26a3", "T1 sequence (Q9WVC8 1-757)": "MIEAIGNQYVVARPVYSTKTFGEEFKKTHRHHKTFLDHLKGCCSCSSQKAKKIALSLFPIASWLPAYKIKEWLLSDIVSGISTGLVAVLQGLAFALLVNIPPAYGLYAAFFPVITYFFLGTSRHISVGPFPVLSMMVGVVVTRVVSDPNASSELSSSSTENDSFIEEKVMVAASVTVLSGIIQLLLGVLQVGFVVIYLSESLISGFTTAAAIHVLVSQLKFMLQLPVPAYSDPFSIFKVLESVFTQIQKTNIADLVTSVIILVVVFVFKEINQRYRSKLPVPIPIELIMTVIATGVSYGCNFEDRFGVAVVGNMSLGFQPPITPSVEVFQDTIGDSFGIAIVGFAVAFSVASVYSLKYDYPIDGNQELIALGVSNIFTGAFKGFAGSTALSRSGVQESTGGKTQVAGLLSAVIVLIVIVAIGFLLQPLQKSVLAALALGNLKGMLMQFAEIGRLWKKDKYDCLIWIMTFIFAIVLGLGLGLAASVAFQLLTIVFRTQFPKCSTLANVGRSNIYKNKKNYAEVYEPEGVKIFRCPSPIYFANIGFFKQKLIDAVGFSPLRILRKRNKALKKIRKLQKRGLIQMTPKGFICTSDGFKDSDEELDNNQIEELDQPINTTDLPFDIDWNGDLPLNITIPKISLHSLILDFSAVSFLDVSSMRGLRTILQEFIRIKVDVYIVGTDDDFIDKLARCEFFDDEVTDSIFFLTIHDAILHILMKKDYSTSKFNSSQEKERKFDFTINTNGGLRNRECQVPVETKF", "test": "slc26a3-mediated Cl-/I- exchange, YFP fluorescence quenching in FRT-YFP-slc26a3 cells", "type": "cell-based", "experimental": "High-throughput screening to identify slc26a3 inhibitors using FRT-YFP- slc26a3 cells was done with a semi-automated Beckman Coulter (Indianapolis, IN) platform with FLUOstar OMEGA plate readers (BMG Labtech, Cary, NC), essentially as described for discovery of pendrin inhibitors. Initial screening was done of ~50,000 drug-like synthetic small molecules (ChemDiv, San Diego, CA) at a concentration of 25 µM using a Cl^-/I^- exchange protocol to assay slc26a3 function. Following initial screening, compound analogs were purchased (ChemDiv, San Diego, CA) to generate structure-activity data.\nFor the screening, FRT-YFP-slc26a3 cells were plated in 96-well black-walled, clear-bottom tissue culture plates (Corning Life Sciences, Tewksbury, MA) at a density of 20,000 cells/well and cultured for 48 hours until confluent. For screening, cells were washed twice in PBS and incubated for 10 min in 100 µl PBS containing test compounds prior to assay of slc26a3 function. Assays were done using a FLUOstar OMEGA plate reader (BMG Labtech, Cary, NC) over 12 s with initial fluorescence recorded over 1 s prior to addition of 100 µl NaI-substituted PBS (137 mM NaCl replaced by 137 mM NaI) to drive Cl^-/I^- exchange. The initial rate of Cl^-/I^- exchange was determined from fluorescence intensity by single exponential regression. All plates contained wells with negative (1 % DMSO) and positive (350 µM niflumic acid) controls.\nScreening was done using an FRT cell line stably expressing murine slc26a3 and a halide-sensitive yellow fluorescent protein (FRT-YFP- slc26a3 cells). FRT cells were used because of their low intrinsic permeability to anions that are transported by slc26a3, and because of their good adherence and rapid growth on uncoated plastic. As diagrammed in FIG. 1A, slc26a3-mediated transport was assayed from the kinetics of YFP fluorescence quenching in response to extracellular addition of I^- to drive Cl^-/I^- exchange; transport inhibition reduces the rate of fluorescence decrease."}, "[2]": {"test": "Pharmacokinetics in mice, serum LC/MS", "type": "in vivo", "conditions": "for oral bioavailability / bioavailability: 5 mg/kg (A1, A260) or 10 mg/kg (A270), mice; for bioavailability: mouse, serum, po, n=3, read-out: oral bioavailability (mean±SEM)", "experimental": "Pharmacokinetics of the Compound A1(DRAinh-A250) and analogs (DRAinh-A260 and DRAinh-A270) was determined in mice. After single dose intraperitoneal or oral administration (5 mg/kg for Compound A1 and DRAinh-A260, 10 mg/kg for DRAinh-A270), blood samples were collected via retro-orbital puncture at different time points and serum was separated by centrifugation. Compound concentrations were measured in serum using LC/MS. FIGS. 10A, 10B, 10C show the respective serum concentration of Compound A1 (FIG. 10A), DRAinh-A260 (FIG. 10B) and DRAinh-A270 (FIG. 10C) after single oral or intraperitoneal administration at zero time (n=3 mice per compound per administration route). Compound A1 had predicted therapeutic levels for at least 24 hours after single dose oral or intraperitoneal administration. […] (mean±SEM): 53.9±6.5% for Compound A1, 16.4±6.6% for DRAinh-A260, and 39.3±3.5% for DRAinh-A270."}}, "note": "“Also recorded” adds a separate entry of the source. Read-outs that look alike come from different tables or passages of the source."}
{"smiles": "Cc1c(CC(=O)O)c(=O)oc2c(C)c(OCc3cccc(Br)c3)ccc12", "note": "[Compound A1]", "values": [{"measurement": "three-hour stool weight, number of pellets and stool water content", "setting": "[1]; 5 mg/kg oral gavage 1 hour before loperamide, wild-type mice", "result": "partially prevented; also recorded: comparably reduced signs of constipation; also recorded: reduces loperamide-induced constipation"}, {"measurement": "reversibility of inhibition", "setting": "murine slc26a3; 1 µM for 10 min, then washed three times", "result": "full reversibility; also recorded: fully and reversibly inhibited"}, {"measurement": "IC50", "setting": "murine slc26a3; selected class A analogs, Table 1, Cl-/I- exchange, read-out: IC50", "result": 150, "unit": "nM"}, {"measurement": "IC50", "setting": "murine slc26a3; summary statement, read-out: IC50 for inhibition of SLC26A3-mediated anion exchange", "result": "100 to 200", "unit": "nM"}, {"measurement": "oral bioavailability", "setting": "[2]", "result": 54, "unit": "%"}, {"measurement": "time with predicted therapeutic serum levels", "setting": "[2]; 5 mg/kg single dose oral or intraperitoneal", "result": "at least 24 hours"}, {"measurement": "bioavailability", "setting": "[2]", "result": "53.9 ± 6.5", "unit": "%"}]}
{"smiles": "Cc1c(CC(=O)O)c(=O)oc2c(C)c(OCc3cccc(I)c3)ccc12", "note": "[DRAinh-A270]", "values": [{"measurement": "stool parameters / diarrhea in control mice", "setting": "[1]; 10 mg/kg oral, mice not treated with loperamide", "result": "did not affect stool parameters or cause diarrhea"}, {"measurement": "stool weight, pellet number and water content, dose-dependence", "setting": "[1]; 1, 3 or 10 mg/kg oral gavage 1 hour before loperamide", "result": "dose-dependence in normalizing stool weight and pellet number, and water content; also recorded: normalizes stool water content even at low doses"}, {"measurement": "potency compared to Compound A1 (DRAinh-A250)", "setting": "murine slc26a3; FIG. 9", "result": "four-fold improved potency"}, {"measurement": "IC50", "setting": "murine slc26a3; FIG. 9 concentration-inhibition curves, read-out: IC50 for slc26a3-mediated Cl-/I- exchange", "result": "~50", "unit": "nM"}, {"measurement": "IC50", "setting": "murine slc26a3; representative Class A compounds, Table 3, read-out: IC50", "result": 40, "unit": "nM"}, {"measurement": "oral bioavailability", "setting": "[2]", "result": 39, "unit": "%"}, {"measurement": "time with predicted therapeutic serum concentrations", "setting": "[2]; 10 mg/kg single dose oral or intraperitoneal", "result": "for several days"}, {"measurement": "bioavailability", "setting": "[2]", "result": "39.3 ± 3.5", "unit": "%"}]}
